According to patent US9066516B2, “Uses of thaxtomin and thaxtomin compositions as herbicides” (priority 2008, dated 2015):

Columns and labels:
[1] = system: corn (Zea mays var. Early Sunglow); experiment: Pot study, phytotoxicity on corn (Example 2); assay type: in vivo; conditions: 0.5 and 1.0 mg/mL, 7, 14 and 21 days after treatment
Description: (§1) A pot study is conducted to test the phytotoxicity of thaxtomin A on corn (Zea mays var. Early Sunglow) and wheat (Triticum aestivum var. PR1404). To confirm the activity on broadleaf weeds, pigweed (Amaranthus sp.) is planted in the same pot with either three corn or five wheat seeds, and sprayed simultaneously with the cereal test plants. The less than 3-inch tall plants grown under growth lights (12-h light/12-h dark) at 28° C. are sprayed with thaxtomin A solutions derived from a liquid culture of S. acidiscabies containing 0.5, and 1.0 mg thaxtomin A per mL of solvent (4% ethanol and 0.2% non-ionic surfactant). A solution of 4% ethanol +0.2% non-ionic surfactant without thaxtomin A is used as a control treatment. Each treatment is conducted in three replicates. Treated plants are kept at 28° C. under growth lights and observed at three time points—7, 14 and 21 days after treatment—for visual symptoms of phytotoxicity on corn and wheat and % control of pigweed.

[2] = system: wheat (Triticum aestivum var. PR1404); experiment: Pot study, phytotoxicity on wheat (Example 2); assay type: in vivo; conditions: 0.5 and 1.0 mg/mL, 7, 14 and 21 days after treatment
Description: as §1

[3] = system: sorghum (Sorghum bicolor); experiment: Phytotoxicity on sorghum plants (Example 3); assay type: in vivo; conditions: 0.5 and 1.0 mg thaxtomin A/mL, three weeks after the treatment
Description: To test the phytotoxicity of thaxtomin A on sorghum plants, five seeds of sorghum (Sorghum bicolor) are planted in each 4″×4″ plastic pot filled with soil. Plants were grown under optimal conditions in a greenhouse before and after treatment with solutions containing 0.5 and 1.0 mg thaxtomin A/mL. At the time of the treatment, the plants are about 3 inches tall. Each treatment is applied in three replicates, and a control treatment included plants treated with just the carrier (4% EtOH, 0.02% polysorbate 60 POE (20) sorbitan monostearate). Evaluations for phytotoxicity are performed at 7-day intervals starting one week after treatment.

[4] = system: Lambsquarter—Chenopodium album; experiment: Greenhouse weed control by S. acidiscabies extract (Example 4); assay type: in vivo; conditions: Common lambsquarter; 0.5 mg/mL
Description: (§2) A strain of S. acidiscabies (ATCC-49003) is grown in oat bran broth for 5 days (25° C., 200 rpm). The whole cell broth with thaxtomin A is extracted using XAD resin. The dried crude extract was resuspended in 4% ethanol and 0.02% non-ionic surfactant at a concentration of 10 mg/mL, and the solutions with two different concentrations of thaxtomin A (0.5 and 1.0 mg/mL) are tested the following broadleaf weed species:
(§3) All plant species are tested in 4″×4″ plastic pots in three replicates. The untreated control plants are sprayed with the carrier solution (4% Ethanol, 0.02% glycosperse) and the positive control plants with Roundup at a rate corresponding to 1 fl. oz/acre. Treated plants are kept in a greenhouse under 12 h light/12 h dark conditions.

[5] = system: Nightshade, Black—Solanum nigrum; experiment: as above; assay type: in vivo; conditions: 0.5 mg/mL
Description: as §2, §3

redstem = experiment: Field study on rice, weed count (Example 6); assay type: in vivo; conditions: Thaxtomin A 180 g/acre; per plot
Description: (§4) The efficacy of thaxtomin A derived from a liquid culture of S. acidiscabies is tested in a field study on rice using 4.9 sq-ft plots surrounded by a metal ring. Treatments with either thaxtomin A or thaxtomin A in combination with lemongrass oil (formulated as GreenMatch EX) or cyhalofop (formulated as Clincher CA) were done using a hand-held sprayer with a water volume corresponding to 57 gallons per acre. Rice (variety M209) was grown until maturity and harvested by hand for yield and weed count assessment. Results of yield (kg/ha), and numbers of redstem, small-flower umbrella sedge, and sprangletop in each plot are presented in Table 3 below.

[6] = system: small-flower umbrella sedge; experiment: Field study on rice, weed count (Example 6); assay type: in vivo; conditions: Thaxtomin A 180 g/acre, per plot
Description: as §4

sprangletop = experiment: Field study on rice, weed count (Example 6); assay type: in vivo; conditions: Thaxtomin A 180 g/acre, per plot
Description: as §4

dandelion = experiment: Greenhouse synergy test MBI-005 + turf herbicides (Example 11); assay type: in vivo; conditions: 14 days
Description: (§5) The common turf weeds dandelion and plantain were used in testing for synergy between MBI-005 and 2, 4- or dicamba, two common turf herbicides.
(§6) There were 3 replicates per treatment which were sprayed with approximately ⅔ ml per replicate. The treatments were completely randomized and kept in a greenhouse at 25° C. The efficacy was rated at 7 and 14 days post treatment.

plantain = experiment: as above; assay type: in vivo; conditions: 14 days
Description: as §5, §6

barnyard grass = experiment: Post-emergent MBI-005 + Propanil on barnyard grass (Example 20); assay type: in vivo; conditions: 14 days
Description: Negative controls were sprayed with water. Pots were randomly placed in a growth room at 25° C. and 50% RH, and watered as necessary. Treatments were replicated three times and evaluated at 7 and 14 days for visual % damage, with 0% indicating no damage and 100% indicating plant death.
(§7) Synergy was calculated as the ratio of observed (E) to expected (E/Ee) percent control using Colby's formula.

[7] = system: Smallflower umbrella sedge; experiment: Post-emergent MBI-005 + Thiobencarb on Smallflower umbrella sedge (Example 21); assay type: in vivo; conditions: 14 days
Description: […] Negative controls were sprayed with water. Pots were randomly placed in a growth room at 25° C. and 50% RH, and watered as necessary. Treatments were replicated three times and evaluated at 7 and 14 days for visual % damage, with 0% indicating no damage and 100% indicating plant death.
as §7

[8] = system: annual grasses and broadleaves, some perennials; experiment: Pre-emergence spectrum of MBI-005, overall (Example 12); assay type: in vivo; conditions: some perennials (Table 12)
Description: To further describe the spectrum of pre-emergence activity, tests were conducted in laboratory and field conditions. In laboratory testing, 35 seeds were placed on a ring of blotter paper inside a 3 cm petri dish and supplied with 4 ml of MBI-005 (≦0.1 mg MBI-005/ml). Water was used as a negative control and oryzalin applied as a positive control. Petri dishes were randomly placed in a growth room at 25° C. and 50% RH. Treatments were replicated three times and germinated seeds were counted 7 and 14 days after application; water was added as necessary to maintain moisture levels inside each petri dish.
In field testing, field soil containing weed seeds were treated with 38.2 L MBI-005/ha at a spray volume of 280 L/ha using a CO2 sprayer with flat fan nozzles. Treatments, including water as the negative control and Gallery as the positive control, were replicated four times and applied twice at a four week interval. Treatments were evaluated visually as % cover and above-ground fresh weights per container were taken.

[9] = system: mono and dicotyledonous seedlings; conditions: cited from earlier work
[10] = in vivo; cited from earlier work

What does the source list for `CN1C(=O)[C@](O)(Cc2cccc(O)c2)N(C)C(=O)[C@@H]1Cc1c[nH]c2cccc([N+](=O)[O-])c12` [thaxtomin A]?
symptoms of phytotoxicity [1]: no symptoms of phytotoxicity are observed; symptoms of phytotoxicity [2]: no symptoms of phytotoxicity are observed; phytotoxicity [3]: no phytotoxicity is observed; stunting [4]: severe stunting; stunting [5]: severe stunting; # of redstem (redstem): 0.5b; # of sedge ([6]; listed as Thaxtomin A): 1.0a; # of sedge ([6]; listed as thaxtomin): significantly reduced the number of sedges; # of sprangletop (sprangletop; listed as Thaxtomin A): 76.0a; # of sprangletop (sprangletop; listed as thaxtomin): no effect; % Control MBI-005 (dandelion; MBI-005 0.1 mg/mL (2, 4-D line)): 20.0%; % Control MBI-005 (dandelion; MBI-005 0.1 mg/mL (dicamba line)): 20.0%; % Control MBI-005 (plantain; MBI-005 0.12 mg/mL (dicamba line)): 10.0%; % Control MBI-005 (plantain; MBI-005 0.24 mg/mL (2, 4-D line)): 25.0%; Observed Average % Efficacy (E) (barnyard grass; 12.5% MBI-005 (of label rate)): 10.0%; Observed Average % Efficacy (E) (barnyard grass; 25% MBI-005 (of label rate)): 20.0%; Observed Average % Efficacy (E) ([7]; first series, 2% MBI-005): 20. %; Observed Average % Efficacy (E) ([7]; first series, .5% MBI-005): 3.3%; Observed Average % Efficacy (E) ([7]; second series, 1% MBI-005): 10.0%; Observed Average % Efficacy (E) ([7]; second series, 2% MBI-005): 79.2%; pre-emergence spectrum of activity [8]: broad spectrum activity; concentration causing cell swelling, necrosis and growth inhibition [9]: less than 1 uM; activity as pre and post emergent, non-systemic herbicides [10]: marked activity
